Source: paper doi:10.1101/2024.12.09.627564, “Cannabinoid inhibition of mechanosensitive K^+ channels” (bioRxiv, 2024)

Biological target: T1, hsTRAAK (Homo sapiens, UniProt Q9NYG8)
T1 construct: expressed in transfected cells; host or cells: HEK293T
T1 sequence (Q9NYG8 1-393): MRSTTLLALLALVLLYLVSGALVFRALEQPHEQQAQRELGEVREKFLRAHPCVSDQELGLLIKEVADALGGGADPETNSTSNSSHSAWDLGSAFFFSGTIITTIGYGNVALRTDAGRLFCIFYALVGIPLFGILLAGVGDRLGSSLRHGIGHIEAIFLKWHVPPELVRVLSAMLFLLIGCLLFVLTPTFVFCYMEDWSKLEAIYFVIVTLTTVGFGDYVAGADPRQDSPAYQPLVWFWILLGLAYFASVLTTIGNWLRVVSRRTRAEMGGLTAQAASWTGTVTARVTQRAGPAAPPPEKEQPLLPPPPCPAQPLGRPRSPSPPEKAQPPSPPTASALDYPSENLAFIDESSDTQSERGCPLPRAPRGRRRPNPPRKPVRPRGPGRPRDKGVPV
Assay: Whole-cell recordings of TRAAK in cultured HEK293T cells, extracellular CBD
Format: cell-based
Details: 1 and 10 μM CBD, 0 mV
Procedure: For patch clamp recording from cultured cells, drTREK-1 or hsTRAAK genes were cloned into a modified pCEH vector to generate C-terminally EGFP-tagged constructs. HEK293T were cultured in DMEM (Gibco, Thermo Fisher Scientific) with 10% FBS and 100 U ml−1 penicillin and 100 μg ml−1 streptomycin. Trypsinized cells were deposited on 12-mm glass coverslips in a six-well dish one to two days before transfection. For transfection, drTREK-1 or hsTRAAK plasmids were mixed with FuGENE 6 in OptiMEM at a 1:3 ratio with 1 μg DNA per well per construct and applied to cells in growth medium with antibiotics. Patching was conducted from 24 to 60 h post-transfection. Coverslips were placed in a perfusion chamber at room temperature in isotonic bath solution: 135 mM NaCl, 15 mM KCl, 1 mM CaCl2, 1 mM MgCl2, 10 mM HEPES, adjusted to a final pH of 7.5 with NaOH. Cells were chosen by a combination of the presence GFP fluorescence and cell morphology consistent with healthy interphase cells. […]
Patches were evaluated with voltage-step protocols to confirm TRAAK expression and minimal non-specific leak based on reversal potential. Currents were recorded using an Axopatch 200B amplifier (Molecular Devices) at a bandwidth of 1 kHz and digitized with an Digidata 1550B (Molecular Devices) at 100–500 kHz using pClamp10.7 software. […] Data were analyzed using Clampfit 10.7, Excel, and Graphpad Prism software. […]

SMILES: C=C(C)[C@@H]1CCC(C)=C[C@H]1c1c(O)cc(CCCCC)cc1O [CBD, Cannabidiol]
- inhibition of TRAAK by extracellular CBD: strongly inhibited
